The nature of data set [1]: Reactivity of tetrazines towards trans-cyclooct-4-ene-1-ol (axial isomer), competition experiment. The note with it: reference tetrazine 5; acetonitrile/water. The protocol:
A competition experiment was performed to determine the reactivity ratio of a specific tetrazine and 3-(5-acetamido-2-pyridyl)-6-(2-pyridyl)-1,2,4,5-tetrazine (5) (that was chosen as the reference tetrazine), in the inverse-electron demand Diels-Alder reaction with trans-cyclooct-4-ene-1-ol (“minor” isomer with OH in axial position, see: Whitham et al. J. Chem. Soc. (C), 1971, 883-896)).
To acetonitrile (0.100 mL) was added 5 μL of a solution of the specific tetrazine in DMSO (25 mM) and 5 μL of a solution of the reference tetrazine in DMSO (25 mM). This mixture was diluted with water (0.9 mL), and the absolute amounts of both tetrazines was determined by HPLC-MS/PDA analysis. Subsequently, a solution of trans-cyclooct-4-ene-1-ol (axial isomer) in DMSO (25 μL 2.5 mM) was slowly added, and the mixture was stirred for 5 min. Again, the absolute amounts of both tetrazines was determined by HPLC-MS/PDA analysis, and conversions for both tetrazines was calculated. From these conversions, the reactivity ratio (R=k2,TCO/k2,Ref) of both tetrazines was calculated using the mathematical procedure from Ingold and Shaw (J. Chem. Soc., 1927, 2918-2926).

Data set [2] is described as follows: Hydrolytic stability tests of tetrazines (UV, decrease of absorption at 525 nm). The format is physicochemical. The following applies: PBS buffer, 20° C. From the text: This solution was filtered and, the decrease of the absorption band at 525 nm was monitored using UV spectroscopy.
Data set [3] in a line: Stability of trans-cyclooctene derivatives in PBS (HPLC-MS). In kind it is physicochemical. The note with it: PBS buffer, 20° C., in the dark, estimation.
Method: 10 μL of a solution of the specific trans-cyclooctene derivative in dioxane (25 mM) was diluted with PBS buffer (3 mL), and this solution was stored at 20° C. in the dark. The fate of the TCO compound was monitored by HPLC-MS analysis, and an estimation of the half-life time was made.

SMILES strings stand for the structures.

As to `CCCCNC(=O)c1ccc(-c2nnc(-c3ncccn3)nn2)nc1`, the “Reactivity ratio (R = k2,TZ/k2,Ref)” value in data set [1] was 2. The compound also showed a half-life at 83 µM in data set [2] of 25.2 min.
With `COc1cccc2c1C(=O)c1c(O)c3c(c(O)c1C2=O)C[C@@](O)(C(=O)CO)CC3OC1CC(NC(=O)OC2/C=C/CCCCC2)[C@H](O)C(C)O1` (stereo partly drawn), the half-life at 83 µM in data set [3] is more than 20 days.
